In patent publication US20250381180A1, “METHODS OF TREATING OR PREVENTING OVERACTIVE BLADDER SYNDROME” (Purdue Pharma L.P., priority 2022, published 2025):
Entries after “also recorded” stand apart in the source; their conditions may differ.

How the values were obtained:
conscious SCI rats = experiment: Cystometric parameters in conscious spinal cord injury (SCI) rats; assay type: in vivo, rat
Experimental: Test substance effects were compared to those of the reference substance, the β3-adrenoceptor agonist mirabegron, marketed for overactive bladder.
• At W-5, spinal cord injury was performed at T8 level as described below. • Over W-5, rats were treated daily with gentamicin. • Over W-5 and W-4, bladder was emptied manually once a day. • From W-5 to W0, animals were weighed once per week. • At D-2 (W0), implantation of catheters was performed under isoflurane anaesthesia as described below. • At D0 (W0), cystometry was performed
Rats were anesthetized with isoflurane (3%). Body temperature was constantly maintained at 37° C. throughout the surgery by placing animals on a thermo-regulated hot plate. A laminectomy was performed and the spinal cord was sectioned with microscissors at T8 level. Care was taken to assure that the section was complete by verifying that a slight retraction of the two segments occurred. Then the muscle was sutured and the skin fixed with staples. The scar was cleaned by Vetedine. For the Sham group, the same surgery was performed without section of the spinal cord.
The urinary bladder was squeezed once a day for 14 days with a gentle massage of the abdomen until restoration of the micturition reflex. In addition, they were administered intramuscularly daily for one week with gentamicin (2 mg/mL, 0.2 ml/rat). Animals were euthanized if they reached humane endpoints: weight loss of greater than 20% of their body weight and/or abnormal behavioral changes indicating presence of pain and distress (prostration, self-mutilation, aggressiveness).
Rats were anesthetized with isoflurane (3%). Body temperature was constantly maintained at 37° C. throughout the surgery by placing animals on a thermo-regulated hot plate. A polyethylene catheter (0.58 and 0.96 mm of inner and outer diameters, respectively) was implanted in the bladder through the dome for intravesical pressure recording. Another catheter (0.58 and 0.96 mm of inner and outer diameters, respectively) was implanted in the stomach for intra-gastric administration. Catheters were exteriorized at the scapular level. After surgery, each rat was housed individually up to the end of the protocol with free access to food and water.
Animals were held under partial restraint in a restraining device. Saline was infused into the bladder at a constant flow rate of 2 or 6 mL/h for sham or SCI rats, respectively. After at least 45 min (3 complete micturition cycles corresponding to basal values), test substances were administered by intra-gastric route. Then, intravesical pressure was recorded for 90 min.
The following cystometric parameters were analyzed (see FIG. 10): • Amplitude of micturition (AM, mmHg). • Threshold pressure (ThP, mmHg). • Intercontraction interval (ICI, sec): time between basal pressure and ThP. ICI was not presented due to different infusion rate in sham and SCI rats. ICI was only analyzed to calculate the bladder capacity. • Bladder capacity (BC, mL) BC=ICI×infusion rate. • Amplitude of non voiding contractions (NVC, mmHg) • Frequency of NVC (number per min).
For each cystometric parameter and for each time period, the comparisons were performed as described below: • Basal values of each cystometric parameter of Sham/Vehicle and SCI/Vehicle groups were compared using unpaired student t test • Basal values of each cystometric parameter of all SCI groups were compared using one-way ANOVA or Kruskal-Wallis test • The 3 interval periods of 30 min post treatment of each cystometric parameter within the same group were compared to corresponding basal values using one-way ANOVA with repeated measures or Friedman test followed by Dunnett's or Dunn's post-test, respectively. • The 3 interval periods of 30 min post treatment of each cystometric parameter were compared between all SCI groups using one-way ANOVA or Kruskal Wallis test followed by Holm-Sidak's or Dunn's post-test versus Vehicle, respectively.

[1] = Phase 1 single-dose pharmacokinetics, mild renal impairment vs normal renal function; assay type: in vivo, human; conditions: single oral 1.0-mg immediate-release tablet
Experimental: This was a phase 1, nonrandomized, open-label, parallel-group, single-dose study. A total of 20 subjects (10 subjects with mild renal impairment and 10 healthy subjects with normal renal function) were studied.
At screening, subjects were assigned to a study group according to estimated glomerular filtration rate (eGFR), calculated using the 2021 Chronic Kidney Disease Collaboration (CKD-EPI 2021) formula as follows, in Table 11: […]
Subjects remained fasted for 4 hours after study drug dosing (except diabetic subjects, who were allowed a light breakfast at 2 hours after study drug dosing as judged by the investigator). Except as part of study drug administration, subjects restricted their consumption of water for 2 hours before dosing and for 2 hours after dosing. At all other times during the study, subjects were able to consume water ad libitum.

[2] = i.g., Cpd (IA) 30 mg/kg, mirabegron 10 mg/kg

plasma concentrations at 72 and 96 hours ([1]; all subjects): all below the limit of quantitation
plasma concentrations over time, mild renal impairment versus normal renal function ([1]; n=10 per group): comparable
SMILES: O=C(O)c1nc2ccccc2n([C@H]2C[C@H]3CCC[C@@H](C2)N3C2CC3CCCC(C3)C2)c1=O (stereo partly drawn) [Cpd (IA)]
% of variation from basal values of BC (conscious SCI rats; Cpd (IA) 30 mg/kg i.g., 0-30 min interval, mean±s.e.m., vehicle −0.4±15): −35±7%
AM (amplitude of micturition), effect versus basal (conscious SCI rats; [2]): did not significantly modify
AM (mmHg and % variation), effect versus vehicle (conscious SCI rats; [2]): not significantly modified
BC expressed in % variation from basal, effect versus vehicle (conscious SCI rats; [2]): significantly decreased BC for the 0-30 min post-administration interval period; also recorded: significantly reduced BC, compared to vehicle, for the 0-30 min post-administration interval period
BC expressed in mL, effect versus vehicle (conscious SCI rats; [2]): no significant difference
NVC amplitude (mmHg or % variation), effect versus vehicle (conscious SCI rats; [2]): not significantly modified
NVC amplitude, effect versus basal (conscious SCI rats; [2]): significantly decreased NVC amplitude for the 30-60 and 60-90 min post-administration interval periods
NVC frequency (NVC/min and % variation), effect versus vehicle (conscious SCI rats; [2]): not significantly modified
NVC frequency, effect versus basal (conscious SCI rats; [2]): significantly decreased NVC frequency for the 0-30 and 60-90 min interval periods
ThP (mmHg and % variation), effect versus vehicle (conscious SCI rats; [2]): not significantly modified
ThP (threshold pressure), effect versus basal (conscious SCI rats; [2]): no significant effect
BC (bladder capacity), effect versus basal (conscious SCI rats; i.g., Cpd (IA) 30 mg/kg, mirabegron 10 mg/kg, 30-min interval periods to 90 min): significantly decreased BC for the 0-30 and 30-60 min post-administration interval periods
NVC frequency, effect versus basal (conscious SCI rats; i.g., Cpd (IA) 30 mg/kg, mirabegron 10 mg/kg, listed as compound of formula (IA)): significantly decreased NVC frequency compared to basal value for the 0-30 and 60-90 min post-administration interval periods
